Results from patent US6060458A (The United States of America as represented by the …, priority 1998, dated 2000).
Residue numbers refer to the chain shown, from its start.

Key:
[1] = target: T1, mutant human alkyltransferase G156A (Homo sapiens, UniProt P16455, G156A); experiment: Inactivation of purified mutant human AGT G156A, residual activity on [3H]-methylated DNA substrate; type: biochemical; conditions: 30 min at 37° C. incubation with inactivator
T1 construct: made in house; E. coli by own knowledge of pIN vectors
T1 sequence (P16455 1-207 G156A): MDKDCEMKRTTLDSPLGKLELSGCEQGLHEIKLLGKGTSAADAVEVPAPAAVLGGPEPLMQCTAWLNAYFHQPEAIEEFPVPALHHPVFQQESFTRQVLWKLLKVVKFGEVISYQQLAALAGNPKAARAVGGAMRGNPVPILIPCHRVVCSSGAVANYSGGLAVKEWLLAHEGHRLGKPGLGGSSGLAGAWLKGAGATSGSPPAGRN
Experimental: (§1) Whether or not a given single-stranded oligodeoxyribonucleotide inactivates a wild-type or mutant human alkyltransferase can be determined by measuring alkyltransferase depletion. For example, a stock solution (100 mM) of a given single-stranded oligodeoxyribonucleotide in an aqueous or mixed aqueous/organic solvent can be prepared. Solutions of the human wild-type AGT, mutant human AGT, or the AGT from HT29 cells and cell extracts (Domoradzki et al., Carcinogenesis 5: 1641-1647 (1984)) can be incubated with varying concentrations (between 0 and 400 μM, for example) of the oligodeoxyribonucleotide for 30 min in a buffer containing 50 mM Tris-HCl, pH 7.5, 0.1 mM EDTA, and 5 mM dithiothreitol, and alkyltransferase depletion can be measured. Alternatively, cells can be plated at a density of 5×10^6 cells/T75 flask and allowed to grow for three days, at which time the medium can be replaced with medium containing a given concentration of an oligodeoxyribonucleotide. After four hours, cells can be harvested and frozen at -80° C. for analysis of alkyltransferase depletion later. Alkyltransferase depletion is determined by measuring loss of O^6 -[^3 H]methylguanine, for example, from a [^3 H]methylated DNA substrate, for example, which can be prepared by reacting [^3 H]methylnitrosourea (21.5 Ci/mmol) with calf thymus DNA as described previously (Domoradzki et al. (1984), supra; and Dolan et al. (1990), supra).
(§2) Wild-type human AGT and mutants thereof, namely P140A and G156A, were prepared using the pIN vector expression system. pIN-AGT, pIN-P140A (Pro-140 to Ala) and pIN-G156A (Gly-156 to Ala) (Crone et al. (1993), supra; Crone et al. (1994), supra; and Pegg et al. (1993), supra).
(§3) The wild-type and mutant AGT proteins expressed from the pIN vectors were purified to homogeneity by ammonium sulfate precipitation, Mono-S chromatography and gel filtration as previously described (Pegg et al. (1993), supra; and Kanugula et al. (1995), supra). […] Afterwards, residual AGT activity was determined by a 30 min incubation with a [^3 H]-methylated DNA substrate (1.0 ml volume), which had been methylated by reaction with N-[^3 H]-methyl-N-nitrosourea as previously described (Dolan et al. (1993), supra; and Dolan et al. (1991), supra).

[2] = tested on: wild-type human alkyltransferase (AGT); experiment: Inactivation of purified wild-type human AGT, residual activity on [3H]-methylated DNA substrate; type: biochemical; conditions: 30 min at 37° C. incubation with inactivator
Experimental: as §1, §2, §3

[3] = target: T2, mutant human alkyltransferase P140A (Homo sapiens, UniProt P16455, P140A); experiment: Inactivation of purified mutant human AGT P140A, residual activity on [3H]-methylated DNA substrate; type: biochemical; conditions: 30 min at 37° C. incubation with inactivator
T2 construct: made in house; E. coli by own knowledge of pIN vectors
T2 sequence (P16455 1-207 P140A): T1 sequence (P16455 1-207 G156A) with P140A, A156G
Experimental: as §1, §2, §3

[4] = target: T2, mutant human alkyltransferase P140A; conditions: P140A mutant AGT; data previously published; read-out: ED50 for inactivation of AGT; cited from earlier work
[5] = target: T1, mutant human alkyltransferase G156A; conditions: G156A mutant AGT; data previously published; read-out: ED50 for inactivation of AGT; cited from earlier work
[6] = target: wild-type human alkyltransferase (AGT); conditions: data previously published, read-out: ED50 for inactivation of AGT; cited from earlier work
[7] = tested on: AGT; conditions: cell culture; maximal reduction attained (Pegg et al. (1995)); cited from earlier work

Row | Compound | ED50 for inactivation of AGT (concentration needed to reduce AGT activity by 50%) [1] [µM] | ED50 for inactivation of AGT (concentration needed to reduce AGT activity by 50%) [2] [µM] | ED50 for inactivation of AGT (concentration needed to reduce AGT activity by 50%) [3] [µM] | IC50 [4] [µM] | IC50 [5] [µM] | IC50 [6] [µM] | reduction of AGT activity [7] [%]
1 | 5'-d(TGAb^6 GCTG)-3' | 0.05 | 0.007 | 0.06 | – | – | – | –
2 | 5'-d(GAb^6 GCT)-3' | 0.06 | 0.013 | 0.05 | – | – | – | –
3 | 5'-d(TGTGAb^6 GCTGTG)-3' | 0.11 | 0.013 | 0.075 | – | – | – | –
4 | 5'-d(GTGAb^6 GCTGT)-3' | 0.09 | 0.008 | 0.06 | – | – | – | –
5 | Nc1nc(OCc2ccccc2)c2ncn([C@H]3C[C@H](O)[C@@H](CO)O3)c2n1 [O^6-benzyl-2'-deoxyguanosine] | – | – | – | > 20 | > 100 | 2 | –
6 | 5'-d(Ab^6 GC)-3' | 4.6 | 0.09 | 0.77 | – | – | – | –
7 | Nc1nc(OCc2ccccc2)c2[nH]cnc2n1 [O^6 -benzylguanine] | – | – | – | – | – | 0.2 | –
8 | COc1nc(N)nc2[nH]cnc12 [O^6 -methylguanine] | – | – | – | – | – | – | 85
